Read-outs that look alike come from different tables or passages of the source. Each block holds one molecule with its values, some of them ahead of it.
Assays:
[1] = test system: human cryopreserved hepatocytes; assay: Stability in human cryopreserved hepatocytes without and with cimetidine or thiabendazole (Example 6); conditions: human hepatocytes, largest effect over concentrations tested
Description: (§1) Mebendazole (1 μM) was incubated with cryopreserved human hepatocytes for 60 min in the absence and presence of cimetidine at 30, 100 and 300 μM) and thiabendazole at 10, 30 and 100 μM and samples taken at the required time points. The amount of test compound remaining at each time point was analysed by LC-MS/MS. Appropriate control compounds were also incubated along with ethoxycoumarin, which was incubated in the absence and presence of cimetidine and thiabendazole.
(§2) The final incubation volume was 500 μL. Two control compounds were included, alongside appropriate vehicle control. A positive control compound, ethoxycoumarin, for CYP1A2 was included. The positive control compound was incubated without inhibitor and in the presence of each inhibitor. The reactions were stopped by transferring 50 μL of incubate to 100 μL acetonitrile containing internal standard at the appropriate time points (0, 5, 10, 20, 40 and 60 min). The termination plates were centrifuged at 2500 rpm at 4° C. for 30 min to precipitate the protein.

[2] = Stability in human liver microsomes without and with cimetidine or furafylline (Example 4); assay type: in vitro ADME; conditions: human liver microsomes, largest effect over concentrations tested
Description: A minus cofactor control incubation was included for each compound tested where 0.1 M phosphate buffer pH 7.4 was added instead of NADPH (minus NADPH). […] The samples were analysed for mebendazole or phenacetin using LC-MS/MS.
A minus cofactor control incubation was included for each compound tested where 0.1 M phosphate buffer pH 7.4 was added instead of cofactor (minus NADPH). […] The samples were analysed for mebendazole or phenacetin using LC-MS/MS.

[3] = test system: human cryopreserved hepatocytes; conditions: for reduction of metabolism of mebendazole: initial experiments
Description: (§3) The amount of test compound remaining at each time point was analysed by LC-MS/MS. Appropriate control compounds were also incubated.
(§4) The final incubation volume was 500 μL. Appropriate control compounds were included, alongside appropriate vehicle control.
(§5) The reactions were stopped by transferring 50 μL of incubate to 100 μL acetonitrile containing internal standard at the appropriate time points (0, 5, 10, 20, 40 and 60 min). The termination plates were centrifuged at 2500 rpm at 4° C. for 30 min to precipitate the protein.

[4] = test system: human cryopreserved hepatocytes; assay: Stability in human cryopreserved hepatocytes without and with cimetidine or furafylline (Example 5); assay type: in vitro ADME; conditions: human hepatocytes, largest effect over concentrations tested
Description: The final incubation volume was 500 μL. Two control compounds were included with each species, alongside appropriate vehicle control.
The samples were analysed for mebendazole or ethoxycoumarin using LC-MS/MS.
The final incubation volume was 500 μL.
A positive control compound, ethoxycoumarin, for CYP1A2 was included. […] The samples were analysed for mebendazole or ethoxycoumarin using LC-MS/MS.

human BCRP transporter = human BCRP transporter (Homo sapiens, UniProt Q9UNQ0); conditions: Caco-2
human BCRP transporter, sequence (Q9UNQ0 whole entry): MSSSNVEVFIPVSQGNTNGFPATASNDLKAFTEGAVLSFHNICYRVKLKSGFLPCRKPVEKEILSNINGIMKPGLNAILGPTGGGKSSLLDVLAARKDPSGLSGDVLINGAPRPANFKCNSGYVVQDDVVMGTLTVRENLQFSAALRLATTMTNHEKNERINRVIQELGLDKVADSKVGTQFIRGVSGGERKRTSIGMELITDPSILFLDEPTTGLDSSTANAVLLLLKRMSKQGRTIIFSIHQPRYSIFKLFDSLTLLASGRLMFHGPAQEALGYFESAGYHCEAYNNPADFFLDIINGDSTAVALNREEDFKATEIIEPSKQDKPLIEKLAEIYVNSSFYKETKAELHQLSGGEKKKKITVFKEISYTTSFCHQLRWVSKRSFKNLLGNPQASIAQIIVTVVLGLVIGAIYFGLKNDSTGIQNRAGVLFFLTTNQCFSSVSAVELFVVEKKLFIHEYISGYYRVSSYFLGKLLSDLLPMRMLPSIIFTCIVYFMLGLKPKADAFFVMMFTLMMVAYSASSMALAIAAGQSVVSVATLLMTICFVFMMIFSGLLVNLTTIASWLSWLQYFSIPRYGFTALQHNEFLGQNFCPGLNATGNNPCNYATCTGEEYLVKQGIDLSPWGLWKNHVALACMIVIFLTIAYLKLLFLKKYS
Description: Bidirectional apparent permeability of test compound was quantified by LC-MS/MS and used to determine an efflux ratio.

in vitro = conditions: human, cryopreserved hepatocytes, probe mebendazole 1 µM (intrinsic clearance)
Description: as §3, §4, §5

[5] = test system: human cryopreserved hepatocytes
Description: as §3, §4, §5

CYP1A2 = CYP1A2 (Homo sapiens, UniProt P05177); conditions: cited from earlier work
CYP1A2, sequence (P05177 whole entry): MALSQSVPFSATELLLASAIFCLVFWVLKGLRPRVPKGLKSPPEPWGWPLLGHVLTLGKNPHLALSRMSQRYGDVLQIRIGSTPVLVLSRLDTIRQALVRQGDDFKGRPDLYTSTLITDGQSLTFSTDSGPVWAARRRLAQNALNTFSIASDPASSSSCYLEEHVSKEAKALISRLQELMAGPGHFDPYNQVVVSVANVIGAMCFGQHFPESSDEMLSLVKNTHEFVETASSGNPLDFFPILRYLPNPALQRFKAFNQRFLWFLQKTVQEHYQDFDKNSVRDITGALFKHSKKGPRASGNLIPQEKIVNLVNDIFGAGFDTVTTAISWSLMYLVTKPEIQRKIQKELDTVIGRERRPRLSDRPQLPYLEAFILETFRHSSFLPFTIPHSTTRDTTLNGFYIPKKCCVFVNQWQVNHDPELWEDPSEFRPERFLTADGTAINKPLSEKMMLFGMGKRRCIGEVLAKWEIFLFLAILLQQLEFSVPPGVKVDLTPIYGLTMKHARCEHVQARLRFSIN

[6] = test system: human cryopreserved hepatocytes; remark: listed apart in the source
Description: as §1, §2

SMILES: CN/C(=N/CCSCc1nc[nH]c1C)NC#N [Cimetidine]
decrease of mebendazole metabolism in presence of the inhibitor [1]: 1.2 fold | inhibition of intrinsic clearance of mebendazole [1]: 19% | inhibition of intrinsic clearance of mebendazole [2]: 32% | effect on metabolism of mebendazole ([3]; in the presence of cimetidine (30-300 μM)): not decreased | decrease of mebendazole metabolism in presence of the inhibitor [4]: 1.3 fold | inhibition of intrinsic clearance of mebendazole [4]: 25%

SMILES: C[C@]12CC[C@@H]3c4ccc(OS(=O)(=O)O)cc4CC[C@H]3[C@@H]1CCC2=O [Estrone-3-sulfate]
efflux ratio (ER) of positive control substrate (human BCRP transporter): 128

SMILES: COCCCC/C(=N\OCCN)c1ccc(C(F)(F)F)cc1 [Fluvoxamine]
reduction of metabolism of mebendazole ([3]; at 30 μM fluvoxamine): 2.3 fold | inhibition at 10 µM (in vitro): 95% | reduction of metabolism of mebendazole ([5]; fluvoxamine 10 to 300 μM, maximum as seen at 10 μM): up to 20.2 fold

More lines, main results first:

reduction of metabolism of mebendazole ([3]; at 10 μM mexiletine): 2.7 fold | inhibition at 30 µM (in vitro): 87% | reduction of metabolism of mebendazole ([5]; mexiletine 10 to 300 μM, maximum as seen at 30 μM): up to 7.8 fold
SMILES: Cc1cccc(C)c1OCC(C)N (centres unmarked) [Mexiletine]

decrease of mebendazole metabolism in presence of the inhibitor [6]: 6.4 fold | inhibition of intrinsic clearance of mebendazole [6]: 84%
SMILES: c1ccc2[nH]c(-c3cscn3)nc2c1 [Thiabendazole]
IC50 (CYP1A2; read-out: IC50 value for CYP1A2 inhibition): 0.83 µM | Ki (CYP1A2; read-out: inhibition constant (Ki) value for CYP1A2 inhibition): 1.54 µM

Reference: patent publication US20220125765A1, “PHARMACEUTICAL COMBINATIONS COMPRISING MEBENDAZOLE AND A STRONG OR MODERATE CYP1A2 INHIBITOR” (ZEPHAPHARM LTD, priority 2019, published 2022)
